From patent US9328374B2, “Selective culture medium and method for detecting carbapenem-resistant bacteria in a test sample” (Institut National de la Sante et de la Recherche Medicale …, priority 2011, dated 2016)

Assays:
Assay in all cases: MIC of imipenem, ertapenem and meropenem
E. coli = assay type: cell-based, Escherichia coli
S. typhimurium = assay type: cell-based
P. mirabilis = assay type: cell-based
C. koseri = assay type: cell-based

C[C@@H](O)[C@H]1C(=O)N2C(C(=O)O)=C(SCCN=CN)C[C@H]12 [IPM, imipenem]
MIC (E. coli; E. coli ALL (NDM-1 + OXA-1 + OXA-2 + CTX-M-15 + TEM-1)): 4 µg/mL | MIC (E. coli; E. coli ALL, NDM-1 + TEM-1 + CTX-M-15 + OXA-1 + OXA-2): 4 µg/mL | MIC (E. coli; E. coli AME (OXA-48 + CTX-M-24)): 0.25 µg/mL | MIC (E. coli; E. coli AME, OXA-48 + CTX-M-24): 0.25 µg/mL | MIC (E. coli; E. coli AUS (NDM-1 + CTX-M-15 + TEM-1)): 6 µg/mL | MIC (E. coli; E. coli AUS, NDM-1 + TEM-1 + CTX-M-15): 6 µg/mL | MIC (E. coli; E. coli BER (OXA-48 + CTX-M-15)): 0.38 µg/mL | MIC (E. coli; E. coli BER, OXA-48 + TEM-1 + CTX-M-15): 0.38 µg/mL | MIC (E. coli; E. coli BOK (OXA-48 + CTX-M-15)): 0.25 µg/mL | MIC (E. coli; E. coli BOK, OXA-48 + CTX-M-15): 0.25 µg/mL | MIC (E. coli; E. coli BON (OXA-48 + CTX-M-24 + TEM-1)): 0.38 µg/mL | MIC (E. coli; E. coli BON, OXA-48 + TEM-1 + CTX-M-24): 0.38 µg/mL | MIC (E. coli; E. coli BOU (OXA-48 + CTX-M-15)): 0.5 µg/mL | MIC (E. coli; E. coli BOU, OXA-48 + CTX-M-15): 0.5 µg/mL | MIC (E. coli; E. coli COL (KPC-2)): 4 µg/mL | MIC (E. coli; E. coli COL, KPC-2 + TEM-1 + CTX-M-9): 4 µg/mL | MIC (E. coli; E. coli DIH (VIM-19)): 8 µg/mL | MIC (E. coli; E. coli DIH, VIM-19): 8 µg/mL | MIC (E. coli; E. coli DIN, KPC-2 + TEM-1 + OXA-1): 1 µg/mL | MIC (E. coli; E. coli E14 (CTX-M-14)): 0.12 µg/mL | MIC (E. coli; E. coli E14, CTX-M-14, non-carbapenemase producer): 0.12 µg/mL | MIC (E. coli; E. coli ECA (ACC-1)): 0.12 µg/mL | MIC (E. coli; E. coli ECA, ACC-1, non-carbapenemase producer): 0.12 µg/mL | MIC (E. coli; E. coli EVB (VEB-1)): 0.12 µg/mL | MIC (E. coli; E. coli EVB, VEB-1, non-carbapenemase producer): 0.12 µg/mL | MIC (E. coli; E. coli FOR (CTX-M-15)): 0.12 µg/mL | MIC (E. coli; E. coli FOR, CTX-M-15, non-carbapenemase producer): 0.12 µg/mL | MIC (E. coli; E. coli GEN (NDM-1 + OXA-1 + CMY-30 + TEM-1)): 8 µg/mL | MIC (E. coli; E. coli GEN, NDM-1 + TEM-1 + CMY-30 + OXA-1): 8 µg/mL | MIC (E. coli; E. coli GOG (OXA-48 + CTX-M-24)): 0.5 µg/mL | MIC (E. coli; E. coli GUE (NDM-1 + OXA-1 + TEM-1)): 3 µg/mL | MIC (E. coli; E. coli GUE, NDM-1 + TEM-1 + OXA-1): 3 µg/mL | MIC (E. coli; E. coli HAN (OXA-48 + CTX-M-15)): 3 µg/mL | MIC (E. coli; E. coli HAN, OXA-48 + CTX-M-15): 3 µg/mL | MIC (E. coli; E. coli HB4 (OmpC-, OmpF-)): 0.12 µg/mL | MIC (E. coli; E. coli HB4, (OmpC-, OmpF-), non-carbapenemase producer, porin deficiency): 0.12 µg/mL | MIC (E. coli; E. coli IR5 (NDM-1 + CTX-M-15 + TEM-1)): 16 µg/mL | MIC (E. coli; E. coli IR5, NDM-1 + TEM-1 + CTX-M-15): 16 µg/mL | MIC (E. coli; E. coli JAP (IMP-1)): 0.5 µg/mL | MIC (E. coli; E. coli JAP, IMP-1): 0.5 µg/mL | MIC (E. coli; E. coli LIL, KPC-2 + TEM-1 + OXA-9): 2 µg/mL | MIC (E. coli; E. coli MAD (VIM-1 + CTX-M-3)): 1.5 µg/mL | MIC (E. coli; E. coli MAD, VIM-1+ CTX-M-3): 1.5 µg/mL | MIC (E. coli; E. coli MAR (Overexpressed AmpC)): 16 µg/mL | MIC (E. coli; E. coli MAR, Overexpressed AmpC, non-carbapenemase producer): 16 µg/mL | MIC (E. coli; E. coli MET (Chromosome-encoded extended-spectrum cephalosporinase)): 0.12 µg/mL | MIC (E. coli; E. coli MET, Chromosome-encoded extended-spectrum cephalosporinase, non-carbapenemase producer): 0.12 µg/mL | MIC (E. coli; E. coli NAA (OXA-48 + CTX-M-24)): 0.5 µg/mL | MIC (E. coli; E. coli OM3, OXA-48 + TEM-1 + CTX-M-15): 0.5 µg/mL | MIC (E. coli; E. coli OM20, NDM-1 + TEM-1 + CTX-M-15): 2 µg/mL | MIC (E. coli; E. coli OM22, OXA-48 + TEM-1 + CTX-M-15): 0.5 µg/mL | MIC (E. coli; E. coli PSP (KPC-2)): 0.5 µg/mL | MIC (E. coli; E. coli PSP, KPC-2 + TEM-1 + OXA-1): 0.5 µg/mL | MIC (E. coli; E. coli RIC (NDM-1 + OXA-1 + OXA-10 + CMY-16)): 1 µg/mL | MIC (E. coli; E. coli RIC, NDM-1 + CMY-16 + OXA-1 + OXA-10): 1 µg/mL | MIC (E. coli; E. coli ROB (OXA-48)): 0.5 µg/mL | MIC (E. coli; E. coli ROB, OXA-48): 0.5 µg/mL | MIC (E. coli; E. coli SYD (CMY-2)): 0.12 µg/mL | MIC (E. coli; E. coli SYD, CMY-2, non-carbapenemase producer): 0.12 µg/mL | MIC (E. coli; E. coli TWA, IMP-8 + SHV-12): 6 µg/mL | MIC (E. coli; E. coli ZAN, OXA-48 + TEM-1 + CTX-M-14): 0.38 µg/mL | MIC (E. coli; strain E. coli 1008, TEM-1 + CTX-M-1, non-carbapenemase producer): 0.19 µg/mL | MIC (E. coli; strain E. coli 1034, TEM-1 + SHV-38, non-carbapenemase producer): 0.19 µg/mL | MIC (E. coli; strain E. coli 1048, TEM-1 + SHV-2a, non-carbapenemase producer): 0.19 µg/mL | MIC (E. coli; strain E. coli 10121, CTX-M-2, non-carbapenemase producer): 0.19 µg/mL | MIC (E. coli; strain E. coli AME, OXA-48 + CTX-M-24): 0.25 µg/mL | MIC (E. coli; strain E. coli BON, OXA-48 + TEM-1 + CTX-M-24): 0.38 µg/mL | MIC (E. coli; strain E. coli BOU, OXA-48 + CTX-M-15): 0.5 µg/mL | MIC (E. coli; strain E. coli ECA, ACC-1, non-carbapenemase producer): 0.12 µg/mL | MIC (E. coli; strain E. coli EVB, VEB-1, non-carbapenemase producer): 0.12 µg/mL | MIC (E. coli; strain E. coli FOR, CTX-M-15, non-carbapenemase producer): 0.12 µg/mL | MIC (E. coli; strain E. coli HB4, (OmpC-, OmpF-), non-carbapenemase producer): 0.12 µg/mL | MIC (E. coli; strain E. coli JAP, IMP-1): 0.5 µg/mL | MIC (E. coli; strain E. coli MAR, Overexpressed AmpC, non-carbapenemase producer): 16 µg/mL | MIC (E. coli; strain E. coli MET, Chromosome-encoded extended-spectrum cephalosporinase, non-carbapenemase producer): 0.12 µg/mL | MIC (E. coli; strain E. coli ROB, OXA-48): 0.5 µg/mL | MIC (E. coli; strain E. coli SYD, CMY-2, non-carbapenemase producer): 0.12 µg/mL | MIC (S. typhimurium; S. typhimurium 1081 (CTX-M-1)): 0.25 µg/mL | MIC (S. typhimurium; S. typhimurium 1081, CTX-M-1, non-carbapenemase producer): 0.25 µg/mL | MIC (S. typhimurium; strain S. typhimurium 1081, CTX-M-1, non-carbapenemase producer): 0.25 µg/mL | MIC (P. mirabilis; P. mirabilis 1031 (CTX-M-14 + TEM-1 + SHV-11)): 1.5 µg/mL | MIC (P. mirabilis; P. mirabilis 1031, CTX-M-14 + TEM-1 + SHV-11, non-carbapenemase producer): 1.5 µg/mL | MIC (P. mirabilis; P. mirabilis PMA (ACC-1)): 0.25 µg/mL | MIC (P. mirabilis; P. mirabilis PMA, ACC-1, non-carbapenemase producer): 0.25 µg/mL | MIC (C. koseri; C. koseri ROU, OXA-48): 0.38 µg/mL | MIC (C. koseri; C. koseri VER (OXA-48)): 0.75 µg/mL | MIC (C. koseri; C. koseri VER, OXA-48): 0.75 µg/mL | MIC (C. koseri; strain C. koseri VER, OXA-48): 0.75 µg/mL
